Columns and labels:
[1] = biological target: purified human acetylcholinesterase (Homo sapiens, UniProt P22303); assay type: biochemical; conditions: for specificity for acetylcholinesterase: acetylcholinesterase versus butyrylcholinesterase hydrolysis; for reaction order of the hydrolysis rate (time dependence): at the substrate concentration, change with time showed good linearity; for reaction order of the hydrolysis rate (time dependence) / change in absorbance at 412 nm with time: FIG. 1; for substrate quality for acetylcholinesterase: hydrolysis rate lower than acetyl thiocholine and acetyl-δ methyl-thiocholine; for change in absorbance at 412 nm with time: in 120 minutes, acetylcholinesterase; for hydrolysis rate with Acetylcholinesterase (change in absorbance per minute): phosphate buffer 0.1 M pH 7.4, 0.1% Tween 20, absorbance at 412 nm, measured three times, average ± standard deviation
Description: (§1) To investigate the hydrolysis rate and specificity of each of (1a) and (2a), the hydrolysis rate in a solution of each of purified human acetylcholinesterase and purified human butyrylcholinesterase was measured by the Ellman method, and was compared with those of acetyl thiocholine and acetyl-[…]. To 3 ml of a solution of each enzyme whose concentration was adjusted with a phosphate buffer (0.1 M, pH 7.4) containing 0.1% of Tween 20, 0.1 ml of a solution (5 mM) of 5,5′-dithio-bis(2-nitrobenzoic acid) was added. To these mixtures, the substrates were respectively added in an amount of 0.02 ml (75 mM), and the absorbance (mAbs) at a wavelength of 412 nm was measured.
(§2) The values in the Table represent the changes in absorbance per minute measured three times in the form of average value±standard deviation.
The values represent the absorbance (Abs) measured three times in the form of average value±standard deviation.

[2] = biological target: purified human butyrylcholinesterase (Homo sapiens, UniProt P06276); assay: Hydrolysis rate with purified human butyrylcholinesterase by the Ellman method; assay type: biochemical; conditions: for hydrolysis rate with butyrylcholinesterase compared with spontaneous hydrolysis in the buffer solution: comparison of Table 1 values; for hydrolysis rate with Butyrylcholinesterase (change in absorbance per minute): phosphate buffer 0.1 M pH 7.4, 0.1% Tween 20, absorbance at 412 nm, measured three times, average ± standard deviation
Description: as §1, §2

[3] = Spontaneous hydrolysis rate in the buffer solution (Ellman method); assay type: physicochemical; conditions: buffer solution without enzyme; absorbance at 412 nm; measured three times, average ± standard deviation

purified human acetylcholinesterase, sequence (P22303 32-614): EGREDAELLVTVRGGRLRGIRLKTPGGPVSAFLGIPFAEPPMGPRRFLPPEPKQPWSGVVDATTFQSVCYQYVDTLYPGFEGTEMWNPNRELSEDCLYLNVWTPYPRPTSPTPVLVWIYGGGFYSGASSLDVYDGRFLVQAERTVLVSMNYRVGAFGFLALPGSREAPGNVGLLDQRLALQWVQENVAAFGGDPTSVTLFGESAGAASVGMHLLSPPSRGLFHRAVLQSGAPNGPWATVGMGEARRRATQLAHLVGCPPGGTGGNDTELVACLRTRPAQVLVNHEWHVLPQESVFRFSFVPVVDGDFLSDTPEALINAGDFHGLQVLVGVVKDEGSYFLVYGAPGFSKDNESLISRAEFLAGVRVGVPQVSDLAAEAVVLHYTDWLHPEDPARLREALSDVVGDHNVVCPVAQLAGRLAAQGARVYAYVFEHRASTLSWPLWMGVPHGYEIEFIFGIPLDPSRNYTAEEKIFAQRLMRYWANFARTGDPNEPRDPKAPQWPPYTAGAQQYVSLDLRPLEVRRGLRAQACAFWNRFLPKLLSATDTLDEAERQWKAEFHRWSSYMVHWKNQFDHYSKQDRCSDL
purified human butyrylcholinesterase, sequence (P06276 29-602): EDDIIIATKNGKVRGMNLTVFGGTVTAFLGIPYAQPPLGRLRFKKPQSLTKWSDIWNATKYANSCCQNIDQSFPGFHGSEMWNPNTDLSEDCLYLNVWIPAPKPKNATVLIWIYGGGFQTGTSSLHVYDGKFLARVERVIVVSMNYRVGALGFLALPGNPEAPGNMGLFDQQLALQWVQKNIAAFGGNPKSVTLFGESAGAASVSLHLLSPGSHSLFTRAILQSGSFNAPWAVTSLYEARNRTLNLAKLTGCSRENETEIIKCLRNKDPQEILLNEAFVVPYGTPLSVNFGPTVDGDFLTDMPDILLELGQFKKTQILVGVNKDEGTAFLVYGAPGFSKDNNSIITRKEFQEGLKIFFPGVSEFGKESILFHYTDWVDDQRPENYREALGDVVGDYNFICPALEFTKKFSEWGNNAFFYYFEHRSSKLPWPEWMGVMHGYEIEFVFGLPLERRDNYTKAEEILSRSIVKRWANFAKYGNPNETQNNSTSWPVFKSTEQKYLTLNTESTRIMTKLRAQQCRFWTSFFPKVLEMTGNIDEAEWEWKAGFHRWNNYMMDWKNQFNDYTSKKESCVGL

Row | SMILES | specificity for acetylcholinesterase [1] | reaction order of the hydrolysis rate (time dependence) [1] | substrate quality for acetylcholinesterase [1] | change in absorbance at 412 nm with time [1] | hydrolysis rate with Acetylcholinesterase (change in absorbance per minute) [1] | hydrolysis rate with butyrylcholinesterase compared with spontaneous hydrolysis in the buffer solution [2] | hydrolysis rate with Butyrylcholinesterase (change in absorbance per minute) [2] | spontaneous hydrolysis rate (change in absorbance per minute) [3]
1 | CC(=O)SCC1CCN(C)CC1 [Compound (1a), 1-methylpiperidin-4-ylmethyl acetyl sulfide] | extremely highly specific | consistent with the zero-order reaction | good substrates for acetylcholinesterase | approximately 0.4 Abs | 3.7 ± 0.098 ΔmAbs/minute | did not show any significant difference | 0.47 ± 0.026 ΔmAbs/minute | 0.47 ± 0.0096 ΔmAbs/minute
2 | CC(=O)SCC1CC[N+](C)(C)CC1 [Compound (2a), 1,1-dimethylpiperidin-4-ylmethyl acetyl sulfide] | extremely highly specific | consistent with the zero-order reaction | good substrates for acetylcholinesterase | approximately 0.4 Abs | 3.1 ± 0.15 ΔmAbs/minute | did not show any significant difference | 0.15 ± 0.0077 ΔmAbs/minute | 0.13 ± 0.027 ΔmAbs/minute
3 | CC(=O)SC(C)C[N+](C)(C)C (stereo not drawn) [Acetyl-β methyl-thiocholine, reference compound] | – | – | – | – | 29 ± 0.24 ΔmAbs/minute | significantly higher | 7.1 ± 0.22 ΔmAbs/minute | 0.48 ± 0.020 ΔmAbs/minute
